Measurements: patent US9051310B2, “Nicotinamide derivative or salt thereof” (FUJIFILM Corporation, priority 2011, dated 2015)

What was measured:
[1] = molecular target: T1, glutathione S-transferase (GST)-linked full-length human Syk protein (Homo sapiens, UniProt P43405); assay: Syk enzyme assay; format: biochemical; details: 0.83 nM Syk, time-resolved fluorescence; read-out: IC50 of Syk-inhibitory activity
T1 construct: glutathione S-transferase (GST)-linked full-length human Syk protein; purchased Carna Biosciences; host or cells: Baculovirus expression system
Procedure, shortened: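 Phosphotyrosine on a biotin-peptide substrate (0.5 μM) was read by time-resolved fluorescence at 615 and 665 nm with Eu-anti-pTyr antibody and APC-streptavidin after 1 h EDTA stop.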

[2] = tested on: THP-1 cells (TNFα secretion on human IgG-coated plate); assay: TNFα generation assay; format: cell-based; details: IFN-γ differentiated THP-1 cells, 7 hours, AlphaLISA, read-out: IC50 of TNFα generation inhibitory activity
Protocol: THP-1 cells (2×10^5 cells/ml), which were human monocytoid cells, were cultured in the presence of 10 ng/ml IFN-γ (Roche) for 2 days, and they were induced to differentiate into macrophage-like cells. The differentiation-induced THP-1 cells were recovered, and the cells (1×10^6 cell/ml) were then allowed to react with a predetermined concentration of test compound at room temperature for 30 minutes. On the other hand, 100 μl of human IgG (10 μg/ml, SIGMA-ALDRICH) diluted with PBS was added to a 96-well plate, and it was then incubated at room temperature overnight. Thereafter, the resultant was washed with PBS twice to produce a human IgG-coated plate. A cell fluid that contained a compound was plated on the obtained human IgG-coated plate (5×10^4 cells/well), and it was then cultured for 7 hours. Thereafter, the cultured solution was recovered, and the amount of TNFα secreted into the culture solution was then measured by the AlphaLISA method (PerkinElmer).

SMILES | IC50 [1] [nM] | IC50 [2] [nM]
COc1nn(C)c2ccc(Nc3nc(N[C@H](C4CCC4)[C@H](C)N)c(F)cc3C(N)=O)cc12 [Example 2-82, 6-(((1R,2S)-2-amino-1-cyclobutylpropyl)amino)-5-fluoro-2-((3-methoxy-1-methyl-1H-indazol-5-yl)amino)nicotinamide] | < 10 | 130 to 200
CC[C@H](N)[C@@H](CC)Nc1nc(Nc2cccc3c2cnn3CC)c(C(N)=O)cc1F [Example 2-101, 6-(((3R,4S)-4-aminohexan-3-yl)amino)-2-((1-ethyl-1H-indazol-4-yl)amino)-5-fluoronicotinamide] | < 10 | 130 to 200
CC(C)[C@@H](Nc1nc(Nc2ccc3ncccc3c2)c(C(N)=O)cc1F)[C@H](C)N [Example 2-106, 6-(((2S,3R)-2-amino-4-methylpentan-3-yl)amino)-5-fluoro-2-(quinolin-6-ylamino)nicotinamide] | 10 to 50 | 130 to 200
CCn1ncc2c(Nc3nc(N[C@H](COC)[C@H](C)N)c(F)cc3C(N)=O)cccc21 [Example 2-122, 6-(((2S,3S)-3-amino-1-methoxybutan-2-yl)amino)-2-((1-ethyl-1H-indazol-4-yl)amino)-5-fluoronicotinamide] | 10 to 50 | 130 to 200
CC[C@H](N)[C@@H](C)Nc1nc(Nc2ccc3c(c2)c(OC)nn3CCOC)c(C(N)=O)cc1F [Example 2-129, 6-(((2R,3S)-3-aminopentan-2-yl)amino)-5-fluoro-2-((3-methoxy-1-(2-methoxyethyl)-1H-indazol-5-yl)amino)nicotinamide] | 10 to 50 | 130 to 200
COCCn1nc(C)c2cc(Nc3nc(N[C@@H](CN)CC(C)C)c(F)cc3C(N)=O)ccc21 [Example 2-130] | < 10 | 65 to 130
CCC[C@@H](Nc1nc(Nc2ccc3c(c2)c(C)nn3CCOC)c(C(N)=O)cc1F)[C@H](C)N [Example 2-132, 6-(((2S,3R)-2-aminohexan-3-yl)amino)-5-fluoro-2-((1-(2-methoxyethyl)-3-methyl-1H-indazol-5-yl)amino)nicotinamide] | < 10 | 130 to 200
COCCn1nc(C)c2cc(Nc3nc(N[C@H](C4CC4)[C@H](C)N)c(F)cc3C(N)=O)ccc21 [Example 2-133, 6-(((1R,2S)-2-amino-1-cyclopropylpropyl)amino)-5-fluoro-((1-(2-methoxyethyl)-3-methyl-1H-indazol-5-yl)amino)nicotinamide] | < 10 | 65 to 130
COCCn1nc(C)c2cc(Nc3nc(N[C@H](CC(C)C)[C@H](C)N)c(F)cc3C(N)=O)ccc21 [Example 2-134, 6-(((2S,3R)-2-amino-5-methylhexan-3-yl)amino)-5-fluoro-2-((1-(2-methoxyethyl)-3-methyl-1H-indazol-5-yl)amino)nicotinamide] | < 10 | 130 to 200
Cc1nn(CC(F)F)c2ccc(Nc3nc(N[C@@H](CN)CC(C)C)c(F)cc3C(N)=O)cc12 [Example 2-137] | < 10 | 65 to 130
CCC[C@@H](Nc1nc(Nc2ccc3c(c2)c(C)nn3CC(F)F)c(C(N)=O)cc1F)[C@H](C)N [Example 2-138] | < 10 | < 65
COC[C@@H](Nc1nc(Nc2ccc3c(c2)c(C)nn3CC(F)F)c(C(N)=O)cc1F)[C@H](C)N [Example 2-139, 6-(((2S,3S)-3-amino-1-methoxybutan-2-yl)amino)-2-((1-(2,2-difluoroethyl)-3-methyl-1H-indazol-5-yl)amino)-5-fluoronicotinamide] | < 10 | 65 to 130
COc1ncc(Nc2nc(N[C@H](CC(C)C)[C@H](C)N)c(F)cc2C(N)=O)cc1-n1ccnn1 [Example 2-141, 6-(((2S,3R)-2-amino-5-methylhexan-3-yl)amino)-5-fluoro-2-((6-methoxy-5-(1H-1,2,3-triazol-1-yl)pyridin-3-yl)amino)nicotinamide] | 10 to 50 | 130 to 200
CC(C)C[C@@H](Nc1nc(Nc2ccc3c(c2)c(OC(F)F)nn3C)c(C(N)=O)cc1F)[C@H](C)N [Example 2-172, 6-(((2S,3R)-2-amino-5-methylhexan-3-yl)amino)-2-((3-(difluoromethoxy)-1-methyl-1H-indazol-5-yl)amino)-5-fluoronicotinamide] | < 10 | 130 to 200
CCOC[C@@H](Nc1nc(Nc2ccc3c(cnn3C)c2)c(C(N)=O)cc1F)[C@H](C)N [Example 2-179, 6-(((2S,3S)-3-amino-1-ethoxybutan-2-yl)amino)-5-fluoro-2-((1-methyl-1H-indazol-5-yl)amino)nicotinamide] | 10 to 50 | 130 to 200

Second part, the compound after the results:

IC50 [1] [nM] | IC50 [2] [nM] | SMILES
< 10 | 65 to 130 | CCC[C@@H](Nc1nc(Nc2ccc3c(c2)c(OC)nn3C)c(C(N)=O)cc1F)[C@H](C)N [Example 2-80, 6-(((2S,3R)-2-aminohexan-3-yl)amino)-5-fluoro-2-((3-methoxy-1-methyl-1H-indazol-5-yl)amino)nicotinamide]
< 10 | 130 to 200 | CCCC[C@@H](Nc1nc(Nc2ccc3c(c2)c(OC)nn3C)c(C(N)=O)cc1F)[C@H](C)N [Example 2-83, 6-(((2S,3R)-2-aminoheptan-3-yl)amino)-5-fluoro-2-((3-methoxy-1-methyl-1H-indazol-5-yl)amino)nicotinamide]
< 10 | 130 to 200 | CC[C@H](N)[C@@H](C)Nc1nc(Nc2ccc3c(c2)c(OC)nn3C)c(C(N)=O)cc1F [Example 2-84, 6-(((2R,3S)-3-aminopentan-2-yl)amino)-5-fluoro-2-((3-methoxy-1-methyl-1H-indazol-5-yl)amino)nicotinamide]
< 10 | 65 to 130 | CC[C@@H](Nc1nc(Nc2ccc3c(c2)c(OC)nn3CCOC)c(C(N)=O)cc1F)[C@H](C)N [Example 2-125, 6-(((2S,3R)-2-aminopentan-3-yl)amino)-5-fluoro-2-((3-methoxy-1-(2-methoxyethyl)-1H-indazol-5-yl)amino)nicotinamide]
< 10 | 65 to 130 | CC[C@@H](Nc1nc(Nc2ccc3c(c2)c(C)nn3CCOC)c(C(N)=O)cc1F)[C@H](C)N [Example 2-131, 6-(((2S,3R)-2-aminopentan-3-yl)amino)-5-fluoro-2-((1-(2-methoxyethyl)-3-methyl-1H-indazol-5-yl)amino)nicotinamide]
< 10 | 65 to 130 | CC[C@@H](Nc1nc(Nc2cc(Cl)c3c(cnn3C)c2)c(C(N)=O)cc1F)[C@H](C)N [Example 2-148, 6-(((2S,3R)-2-aminopentan-3-yl)amino)-2-((7-chloro-1-methyl-1H-indazol-5-yl)amino)-5-fluoronicotinamide]
< 10 | 65 to 130 | COC[C@@H](Nc1nc(Nc2cc(Cl)c3c(cnn3C)c2)c(C(N)=O)cc1F)[C@H](C)N [Example 2-149, 6-(((2S,3S)-3-amino-1-methoxybutan-2-yl)amino)-2-((7-chloro-1-methyl-1H-indazol-5-yl)amino)-5-fluoronicotinamide]
< 10 | 130 to 200 | COc1nn(C)c2c(F)cc(Nc3nc(N[C@@H]4CCCC[C@@H]4N)c(F)cc3C(N)=O)cc12 [Example 2-150, 6-(((1R,2S)-2-aminocyclohexyl)amino)-5-fluoro-2-((7-fluoro-3-methoxy-1-methyl-1H-indazol-5-yl)amino)nicotinamide]
< 10 | 130 to 200 | COc1nn(C)c2c(F)cc(Nc3nc(N[C@@H](CN)CC(C)C)c(F)cc3C(N)=O)cc12 [Example 2-151, (R)-6-((1-amino-4-methylpentan-2-yl)amino)-5-fluoro-2-((7-fluoro-3-methoxy-1-methyl-1H-indazol-5-yl)amino)nicotinamide]
< 10 | 130 to 200 | CC[C@@H](Nc1nc(Nc2cc(F)c3c(c2)c(OC)nn3C)c(C(N)=O)cc1F)[C@H](C)N [Example 2-152, 6-(((2S,3R)-2-aminopentan-3-yl)amino)-5-fluoro-2-((7-fluoro-3-methoxy-1-methyl-1H-indazol-5-yl)amino)nicotinamide]
< 10 | 130 to 200 | CCC[C@@H](Nc1nc(Nc2cc(F)c3c(c2)c(OC)nn3C)c(C(N)=O)cc1F)[C@H](C)N [Example 2-153, 6-(((2S,3R)-2-aminohexan-3-yl)amino)-5-fluoro-2-((7-fluoro-3-methoxy-1-methyl-1H-indazol-5-yl)amino)nicotinamide]
< 10 | 65 to 130 | COC[C@@H](Nc1nc(Nc2cc(F)c3c(c2)c(OC)nn3C)c(C(N)=O)cc1F)[C@H](C)N [Example 2-159, 6-(((2S,3S)-3-amino-1-methoxybutan-2-yl)amino)-5-fluoro-2-((7-fluoro-3-methoxy-1-methyl-1H-indazol-5-yl)amino)nicotinamide]
< 10 | 65 to 130 | COC[C@@H](Nc1nc(Nc2ccc3c(c2)c(OC(F)F)nn3C)c(C(N)=O)cc1F)[C@H](C)N [Example 2-173, 6-(((2S,3S)-3-amino-1-methoxybutan-2-yl)amino)-2-((3-(difluoromethoxy)-1-methyl-1H-indazol-5-yl)amino)-5-fluoronicotinamide]
